The source of these data is US10570164B2, “Steviol glycosides, their compositions and their purification” (The Coca-Cola Company, priority 2013, dated 2020).

Assay [1] has as its system panelists. Briefly: Taste evaluation: overall sweetness of 30 ppm solutions against sucrose controls (sweetness recognition threshold). The settings on record: for sweetness recognition threshold: lowest concentration perceivable by the human sense of taste; for sucrose equivalence / isosweetness of a solution of the compound alone: solution containing 30 ppm compound, no additional sweetener, isosweet sucrose solution. Format: in vivo, human. The procedure: (§1) Solutions were made by dissolving all ingredients in treated water. For citric acid buffer, citric acid and potassium citrate were added in a sufficient amount to bring the pH to 3.2. Finished products were filled in 300 ml glass bottles and stored in the refrigerator and tasted the following day.
(§2) Beverages in citric acid/sodium citrate buffer were kept at 4° C. in the refrigerator and tasted the following day. Four panelists evaluated the beverages. Bottles were removed from the refrigerator and about 20 ml of beverage poured in 2 oz. plastic cups. Panelists were instructed not to swallow the samples and additional cups were provided to spit the sample in. Mineral water was given for palate rinsing before tasting and between tasting different samples.
To evaluate 30 ppm of rebaudioside N and rebaudioside O for overall sweetness, panelists were provided solutions of 1%, 1.5%, and 2% sucrose in citric acid/sodium citrate buffer as controls. All panelists determined the overall sweetness of 30 ppm of rebaudioside N and rebaudioside O solutions in citric acid/sodium citrate buffer to fall between 1% and 1.5% sucrose controls. Accordingly, 30 ppm was determined to be the sweetness recognition threshold concentration for both compounds.

The test system of assay [2] is panelists. Briefly: Taste evaluation: sweetness enhancement of 30 ppm added to 8% sucrose beverage against sucrose controls. The format is in vivo, human. The settings on record: for sweetness enhancement: 30 ppm compound added to beverage containing 8% sucrose, citric acid/sodium citrate buffer; for increase in isosweetness provided by the compound: 30 ppm compound in beverage with 8% (w/v) sucrose; for isosweetness of beverage containing sucrose and compound: beverage with 8% (w/v) sucrose and 30 ppm compound, isosweet sucrose solution. The procedure:
as §1, §2
Sweetness enhancement of rebaudioside N and rebaudioside O was evaluated by adding 30 ppm to a solution of 8% sucrose in citric acid/sodium citrate buffer (pH 3.2). The new solutions were then evaluated for their overall sweetness against three controls of 8%, 9%, and 10% sucrose in citric acid/sodium citrate buffer solutions (pH 3.2).

With `C=C1C[C@@]23CCC4[C@](C)(C(=O)OC5OC(CO)C(O)C(OC6OC(CO)C(O)C(O)C6O)C5OC5OC(C)C(O)C(O)C5O)CCC[C@@]4(C)[C@@H]2CC[C@]1(OC1OC(CO)C(O)C(OC2OC(CO)C(O)C(O)C2O)C1OC1OC(CO)C(O)C(O)C1O)C3` (stereo partly drawn) [Compound (2f), 13-[(2-O-β-D-glucopyranosyl-3-O-β-D-glucopyranosyl-β-D-glucopyranosyl)oxy]ent-kaur-16-en-19-oic acid-[(2-O-α-D-rhamnopyranosyl-3-O-β-D-glucopyranosyl-β-D-glucopyranosyl)ester]], in assay [1], the sweetness recognition threshold result is on record as “about 30 ppm” and the “sucrose equivalence / isosweetness of a solution of the compound alone” value is 1.0-1.5 % (w/v). In assay [2], the sweetness enhancement is listed as 2.5-3.0%; the “increase in isosweetness provided by the compound” value is reported as 2.5-3.0 % (w/v); the “isosweetness of beverage containing sucrose and compound” value is listed as 10.5-11.0 % (w/v).
For the compound `C=C1C[C@@]23CCC4[C@](C)(C(=O)OC5OC(CO)C(O)C(OC6OC(CO)C(O)C(O)C6O)C5OC5OC(C)C(O)C(OC6OC(CO)C(O)C(O)C6O)C5O)CCC[C@@]4(C)[C@@H]2CC[C@]1(OC1OC(CO)C(O)C(OC2OC(CO)C(O)C(O)C2O)C1OC1OC(CO)C(O)C(O)C1O)C3` (stereo partly drawn) [Compound (2g), 13-[(2-O-β-D-glucopyranosyl-3-O-β-D-glucopyranosyl-β-D-glucopyranosyl)oxy]ent-kaur-16-en-19-oic acid-[(2-O-(3-O-β-D-glucopyranosyl-α-D-rhamnopyranosyl)-3-O-β-D-glucopyranosyl-β-D-glucopyranosyl)ester]], in assay [1], the sweetness recognition threshold result is “about 30 ppm” and the “sucrose equivalence / isosweetness of a solution of the compound alone” value was 1.0-1.5 % (w/v). For the same compound, in assay [2], the sweetness enhancement result was “about 2.0%”; the “increase in isosweetness provided by the compound” value is reported as 2.0 % (w/v); the “isosweetness of beverage containing sucrose and compound” value was 10.0 % (w/v). For the same compound, the “overall sweetness of beverage against sucrose controls” value in assay [2] (30 ppm compound and 8% sucrose in citric acid/sodium citrate buffer (pH 3.2), 8%, 9%, 10% sucrose controls) was roughly 10%.
